Results as given in PMC6804044, “Design, Synthesis and Biological Evaluation of Pentacyclic Triterpene Derivatives: Optimization of Anti-ABL Kinase Activity” (Molecules, 2019).
Like-named read-outs stand apart in the source and are kept apart here.

Tests used:
CML cell line K562 = test: MTT cell viability assay, K562; type: cell-based, human; conditions: for IC50: Homo sapiens, K562, 24 h, MTT, 24 h exposure, read-out: IC50 Values, K562 Cell Line; for SI (selectivity index): ratio of the IC50 between PBMC and K562 cells
Description: A549 human lung carcinoma and HeLa human cervical carcinoma cell lines were cultured in Dulbecco’s Modified Eagle Medium (DMEM). […] In experiments, all cancer cell lines and PBMC were cultured in 24-well and 96-well plates (Iwaki brand Asahi Glass, Chiba, Japan) at 2 × 10^4 cells/mL and 1 × 10^6 cells/mL concentrations, respectively for 24 h.
(§1) The cells were then stained with MTT solution and incubated for additional 4 h. At the end of this period, supernatants were removed and 100 μL DMSO was added to each well to solubilize the formazan crystals. The absorbance of the solution was determined on the Infinitive M1000 (Tecan, Mannedorf, Switzerland) plate reader at a wavelength of 550 nm with background subtraction at 630 nm.

[1] = test system: peripheral blood mononuclear cells (PBMC); test: MTT cell viability assay, PBMC; type: cell-based; conditions: PBMC, 24 h exposure
Description: (§2) A549 human lung carcinoma and HeLa human cervical carcinoma cell lines were cultured in Dulbecco’s Modified Eagle Medium (DMEM). MCF7 human breast cancer and leukemic (K562, HL-60, MT-2 and Jurkat) cells, and PBMC (Precision Bioservices, Frederic, MD, USA) were cultured in RPMI 1640. All media were purchased from FUJIFILM Wako (Osaka, Japan) and supplemented with 10% fetal bovine serum (FBS) (Sigma-Aldrich, St. Louis, MO, USA) and 89 μg/mL streptomycin (Meiji Seika Pharma, Tokyo, Japan) at 37 °C in a humid atmosphere and 5% CO2. In experiments, all cancer cell lines and PBMC were cultured in 24-well and 96-well plates (Iwaki brand Asahi Glass, Chiba, Japan) at 2 × 10^4 cells/mL and 1 × 10^6 cells/mL concentrations, respectively for 24 h.
as §1, with “The cells were exposed to various concentrations (1–100 μM) of the compounds for 24 h at 37 °C. The cells” for “The cells”

ABL1 kinase [2] = target: T1, ABL1 kinase (Homo sapiens, UniProt P00519); conditions: a value in the previous paper; cited from earlier work
T1 construct: purchased Promega, Madison, WI, USA
T1 sequence (P00519 whole entry): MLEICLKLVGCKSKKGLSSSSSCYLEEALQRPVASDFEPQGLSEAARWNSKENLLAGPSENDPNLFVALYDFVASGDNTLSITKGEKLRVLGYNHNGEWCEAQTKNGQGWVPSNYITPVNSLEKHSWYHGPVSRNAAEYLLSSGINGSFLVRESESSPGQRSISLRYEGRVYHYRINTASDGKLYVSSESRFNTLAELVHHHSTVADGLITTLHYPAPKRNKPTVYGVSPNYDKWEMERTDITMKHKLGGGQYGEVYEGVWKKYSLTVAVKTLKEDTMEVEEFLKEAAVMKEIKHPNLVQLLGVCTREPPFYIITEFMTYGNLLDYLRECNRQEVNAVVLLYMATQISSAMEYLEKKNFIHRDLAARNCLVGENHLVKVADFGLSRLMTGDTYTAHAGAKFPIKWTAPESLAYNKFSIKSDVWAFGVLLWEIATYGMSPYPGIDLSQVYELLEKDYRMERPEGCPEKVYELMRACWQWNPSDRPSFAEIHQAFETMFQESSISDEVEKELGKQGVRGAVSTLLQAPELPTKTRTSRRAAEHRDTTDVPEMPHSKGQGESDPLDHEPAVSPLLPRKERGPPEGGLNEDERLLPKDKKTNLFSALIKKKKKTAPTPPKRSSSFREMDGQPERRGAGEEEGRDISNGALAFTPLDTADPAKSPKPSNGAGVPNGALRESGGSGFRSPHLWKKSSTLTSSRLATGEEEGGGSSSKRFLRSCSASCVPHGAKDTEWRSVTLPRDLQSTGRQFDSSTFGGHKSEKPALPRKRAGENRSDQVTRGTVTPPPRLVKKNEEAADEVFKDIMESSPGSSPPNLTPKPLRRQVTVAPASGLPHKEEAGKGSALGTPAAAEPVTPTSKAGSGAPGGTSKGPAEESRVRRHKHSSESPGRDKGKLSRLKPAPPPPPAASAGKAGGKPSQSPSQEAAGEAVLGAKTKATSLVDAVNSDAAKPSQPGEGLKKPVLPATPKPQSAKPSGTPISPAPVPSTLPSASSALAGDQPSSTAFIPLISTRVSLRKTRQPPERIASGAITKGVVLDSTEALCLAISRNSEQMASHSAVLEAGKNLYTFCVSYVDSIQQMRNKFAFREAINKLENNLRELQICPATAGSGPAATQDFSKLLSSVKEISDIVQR

HL-60 = test: MTT cell viability assay, HL-60; type: cell-based; conditions: Homo sapiens, 24 h exposure
Description: as §2
as §1, with “The cells were exposed to various concentrations (1–100 μM) of the compounds for 24 h at 37 °C. The cells” for “The cells”

MT-2 = test: MTT cell viability assay, MT-2; type: cell-based; conditions: Homo sapiens, MT2, 24 h exposure
Description: as §2
as §1, with “The cells were exposed to various concentrations (1–100 μM) of the compounds for 24 h at 37 °C. The cells” for “The cells”

Jurkat = test: MTT cell viability assay, Jurkat; type: cell-based; conditions: Homo sapiens, 24 h exposure
Description: as §2
as §1, with “The cells were exposed to various concentrations (1–100 μM) of the compounds for 24 h at 37 °C. The cells” for “The cells”

[3] = test system: HeLa human cervical carcinoma; test: MTT cell viability assay, HeLa; type: cell-based; conditions: 24 h exposure
Description: as §2
as §1, with “The cells were exposed to various concentrations (1–100 μM) of the compounds for 24 h at 37 °C. The cells” for “The cells”

MCF7 human breast cancer = test: MTT cell viability assay, MCF7; type: cell-based; conditions: 24 h exposure
Description: as §2
as §1, with “The cells were exposed to various concentrations (1–100 μM) of the compounds for 24 h at 37 °C. The cells” for “The cells”

[4] = test system: A549 human lung carcinoma; test: MTT cell viability assay, A549; type: cell-based; conditions: for IC50: Homo sapiens, A549, MTT, 24 h exposure
Description: as §2
as §1, with “The cells were exposed to various concentrations (1–100 μM) of the compounds for 24 h at 37 °C. The cells” for “The cells”

K562 cells = test: Cell death detection (Hoechst 33342/annexin V/ethidium homodimer III staining); type: cell-based, human; conditions: K562, IC50 concentration, 8 h
Description: The cells were then briefly washed twice with 1 × binding buffer. A staining solution containing 50 μL of 1 × binding buffer and 5 μL of FITC-Annexin V solution, 5 μL of ethidium homodimer III solution, or 5 μL of Hoechst 33342 solution was added, and incubated for 15 min at room temperature in the dark. Then, the cells were washed with 1 × binding buffer, and analyzed by the all-in-one fluorescence microscope Biorevo Fluorescence BZ-9000 (Keyence, Osaka, Japan). The number of healthy cells (Hoechst 33342), apoptotic cells (Annexin V), late apoptotic or necrotic cells (Annexin V and Ethidium homodimer III) and necrotic cells (Ethidium homodimer III) were counted as previously described.

ABL1 kinase [5] = target: T1, ABL1 kinase; test: ABL1 kinase inhibition (ADP-Glo Kinase Assay); type: biochemical; conditions: ADP-Glo, 1 h incubation, room temperature
Description: The ABL1 kinase profiling assay protocol was applied according to the manufacturer`s instructions (Promega, Madison, WI, USA) with the modification proposed in [36]. In this system, the ABL1 kinase and its substrate were diluted with 95 µL 2.5x Kinase Buffer and 15 µL of 100 µM ATP solutions, respectively. Then, the reaction of ABL1 kinase was performed using 2 µL of the compound solution at varying concentrations (0.1–30 µM), 4 µL of kinase working stock, and 4 µL of ATP/substrate working stock in the 384-well plate. After 1 h of incubation at room temperature, the activity of the ABL1 kinase was detected using the ADP-Glo Kinase Assay (Promega, Madison, WI, USA) and the inhibitory kinase activity of compounds in dose-response mode was measured by the Infinitive M1000 luminescence plate reader (Tecan, Groding, Austria).

[6] = test system: ERK1/2 and phosphorylated ERK1/2 in K562 cells; test: Immunoblot analysis of ERK signaling in K562; type: cell-based, human; conditions: K562, 10 μM, 6 h
Description: After 6 h of treatment at 37 °C, the cells were lysed in PBS-Laemmli sample buffer and then, immunoblot analysis was conducted using phospho-specific-p44/42 MAPK (Erk1/2) (Thr202/Tyr204) (D13.14.4E) XP Rabbit mAb (1:1000) (Cell Signaling Technology, Danvers, MA, USA) or anti-β-actin clone AC-15 (Sigma-Aldrich, St. Louis, MO, USA). For immunoreactivity detection, the chemiluminescence method was performed as previously described. The band intensity was measured using the ImageJ software (NIH, Bethesda, MD, USA).

Row | IC50 (CML cell line K562) | IC50 (HL-60) | IC50 (Jurkat) | IC50 [3] | IC50 (MCF7 human breast cancer) | IC50 [4] | IC50 (ABL1 kinase [5]) | melting point | Compound | SI (selectivity index) (CML cell line K562) | IC50 [1] | IC50 (ABL1 kinase [2]) | IC50 (MT-2) | activity against A549 cell line at 100 µM ([4]; 100 µM) | apoptotic effects on CML cell line (K562 cells) | late apoptotic/necrotic effects (K562 cells) | ERK phosphorylation (phosphorylated ERK1/2) [6] | amount of ERK1/2 [6]
1 | 8.94 ± 1.73 µM |  |  |  |  |  |  |  | CC1(C)CC[C@]2(C(=O)OCc3ccccc3)CC[C@]3(C)C(=CC[C@@H]4[C@@]5(C)CC[C@H](O)[C@@](C)(C=O)[C@@H]5CC[C@]43C)[C@@H]2C1 [Compound 1c, benzyl ester of gypsogenin] | >11.19 | > 100 µM | 8.71 ± 1.14 µM |  |  |  |  |  | 
2 | 4.78 ± 1.25 µM | 5.27 ± 0.42 µM | 9.14 ± 0.71 µM | 35.3 ± 2.84 µM | 51.6 ± 4.75 µM | > 100 µM | 7.19 ± 0.65 µM | 85 to 87 °C | CC1(C)CC[C@]2(C(=O)OCc3cc(C(F)(F)F)cc(C(F)(F)F)c3)CC[C@]3(C)C(=CC[C@@H]4[C@@]5(C)CC[C@H](O)[C@@](C)(C=O)[C@@H]5CC[C@]43C)[C@@H]2C1 [GP2, Gypsogenin 3,5-bis(trifluromethyl)benzyl ester] | 11.04 | 52.8 ± 3.82 µM |  | 36.8 ± 4.21 µM | inactive | 24% | 4.5% | inhibitory effect of ERK phosphorylation | moderately decreased
3 | 3.19 ± 1.21 µM | 4.36 ± 0.28 µM | 4.83 ± 0.35 µM | 5.66 ± 0.32 µM | 15.3 ± 2.11 µM | 24.6 ± 1.94 µM | 6.16 ± 0.63 µM | 175 to 177 °C | CC1(C)CC[C@]2(C(=O)OCc3ccc(C#N)cc3)CC[C@]3(C)C(=CC[C@@H]4[C@@]5(C)CC[C@H](O)[C@@](C)(C=O)[C@@H]5CC[C@]43C)[C@@H]2C1 [GP5, Gypsogenin 4-cyanobenzyl ester] | 8.03 | 25.6 ± 2.18 µM |  | 7.26 ± 0.97 µM |  | 9.5% | 5.1% | inhibitory effect of ERK phosphorylation | moderately decreased
